The values below come from ChEMBL document CHEMBL4004821, “Design and synthesis of novel tetrandrine derivatives as potential anti-tumor agents against human hepatocellular carcinoma” (Eur J Med Chem, 2017).

A short description of test [1]: Cytotoxicity against human MHCC97L cells assessed as growth inhibition after 24 hrs by MTT assay. In kind it is functional, cell-based.
Test [2] concerns PLC-PRF-5. Kind of test: Cytotoxicity against human PLC/PRF/5 cells assessed as growth inhibition after 24 hrs by MTT assay. To be noted: PLC-PRF-5, 24 h. It counts as functional, cell-based.

With `COC(=O)C(=O)Nc1cc(OC)c2cc1C[C@H]1c3c(cc(OC)c(OC)c3Oc3cc4c(cc3OC)CCN(C)[C@H]4Cc3ccc(cc3)O2)CCN1C`, the figures for the IC50 in test [1] and in test [2] were 2.46 µM and 3.72 µM, respectively.
Take `COc1cc(NC(=O)C(F)(F)F)c2cc1Oc1ccc(cc1)C[C@H]1c3cc(c(OC)cc3CCN1C)Oc1c(OC)c(OC)cc3c1[C@H](C2)N(C)CC3`: the half-maximal inhibitory concentration (IC50) in test [1] is 2.41 µM; in test [2] it was 2.24 µM.
For `COc1cc(NC(=O)/C=C/c2ccccc2)c2cc1Oc1ccc(cc1)C[C@H]1c3cc(c(OC)cc3CCN1C)Oc1c(OC)c(OC)cc3c1[C@H](C2)N(C)CC3`, in that order: 7.7 µM and 9.81 µM.
For `COc1cc(NC(=O)OCC(C)C)c2cc1Oc1ccc(cc1)C[C@H]1c3cc(c(OC)cc3CCN1C)Oc1c(OC)c(OC)cc3c1[C@H](C2)N(C)CC3`, in that order: 1.4 µM and 4.66 µM.
As to `COc1cc(NC(=O)CCCCl)c2cc1Oc1ccc(cc1)C[C@H]1c3cc(c(OC)cc3CCN1C)Oc1c(OC)c(OC)cc3c1[C@H](C2)N(C)CC3`, the values for the IC50 in test [1] and in test [2] were 9.76 µM and 7.22 µM, respectively.
Taken in the same sequence, the figures for `CNC(=O)c1cc(Oc2ccc(NC(=O)Nc3ccc(Cl)c(C(F)(F)F)c3)cc2)ccn1` [SORAFENIB] were 34.4 µM and 29.9 µM.
Turning to `COc1cc(NC(=O)C=C(C)C)c2cc1Oc1ccc(cc1)C[C@H]1c3cc(c(OC)cc3CCN1C)Oc1c(OC)c(OC)cc3c1[C@H](C2)N(C)CC3`, the half-inhibitory concentration (IC50) in test [1] stood at 6.31 µM; in test [2], 7.63 µM.
Regarding `COc1cc(NC(=O)c2ccc([N+](=O)[O-])o2)c2cc1Oc1ccc(cc1)C[C@H]1c3cc(c(OC)cc3CCN1C)Oc1c(OC)c(OC)cc3c1[C@H](C2)N(C)CC3`, the half-maximal inhibitory concentration (IC50) is 2.11 µM in test [1] and 2.5 µM in test [2].
As to `COc1ccc(C(=O)Nc2cc(OC)c3cc2C[C@H]2c4c(cc(OC)c(OC)c4Oc4cc5c(cc4OC)CCN(C)[C@H]5Cc4ccc(cc4)O3)CCN2C)cc1`, the IC50 in test [1] was 12 µM; in test [2], 5.32 µM.
With `COc1cc(NC(=O)C(C)(C)C)c2cc1Oc1ccc(cc1)C[C@H]1c3cc(c(OC)cc3CCN1C)Oc1c(OC)c(OC)cc3c1[C@H](C2)N(C)CC3`, the figures for the IC50 in test [1] and in test [2] were 6.4 µM and 5.37 µM, respectively.
Taken in the same sequence, the figures for `COc1cc(NC(=O)CO)c2cc1Oc1ccc(cc1)C[C@H]1c3cc(c(OC)cc3CCN1C)Oc1c(OC)c(OC)cc3c1[C@H](C2)N(C)CC3` were 9.09 µM and 10.2 µM.
Regarding `COc1cc(NC(=O)C2CCCO2)c2cc1Oc1ccc(cc1)C[C@H]1c3cc(c(OC)cc3CCN1C)Oc1c(OC)c(OC)cc3c1[C@H](C2)N(C)CC3` (some centres not stated), the figures for the half-maximal inhibitory concentration (IC50) in test [1] and in test [2] were 5.66 µM and 7.32 µM, respectively.
For `COc1cc(NC(=O)C2CC=CC2)c2cc1Oc1ccc(cc1)C[C@H]1c3cc(c(OC)cc3CCN1C)Oc1c(OC)c(OC)cc3c1[C@H](C2)N(C)CC3`, in that order: 5.76 µM and 6.42 µM.
Taken in the same sequence, the figures for `COc1cc(NC(=O)COC(C)=O)c2cc1Oc1ccc(cc1)C[C@H]1c3cc(c(OC)cc3CCN1C)Oc1c(OC)c(OC)cc3c1[C@H](C2)N(C)CC3` were 8.41 µM and 10.2 µM.
Taken in the same sequence, the figures for `COc1cc(NC(=O)c2ccc(Cl)c(Cl)c2)c2cc1Oc1ccc(cc1)C[C@H]1c3cc(c(OC)cc3CCN1C)Oc1c(OC)c(OC)cc3c1[C@H](C2)N(C)CC3` were 3.81 µM and 6.82 µM.
As for `COc1cc(NC(=O)c2ccccc2)c2cc1Oc1ccc(cc1)C[C@H]1c3cc(c(OC)cc3CCN1C)Oc1c(OC)c(OC)cc3c1[C@H](C2)N(C)CC3`, the concentration for half-maximal inhibition (IC50) in test [1] came out at 7.8 µM; in test [2], 9.16 µM.
Taken in the same sequence, the figures for `CCCCCC(=O)Nc1cc(OC)c2cc1C[C@H]1c3c(cc(OC)c(OC)c3Oc3cc4c(cc3OC)CCN(C)[C@H]4Cc3ccc(cc3)O2)CCN1C` were 12.6 µM and 10.3 µM.
For `COc1cc(NC(=O)c2ccc(C(F)(F)F)cc2)c2cc1Oc1ccc(cc1)C[C@H]1c3cc(c(OC)cc3CCN1C)Oc1c(OC)c(OC)cc3c1[C@H](C2)N(C)CC3`, in that order: 8.41 µM and 9.49 µM.
Consider `COc1cc(NC(=O)C2CC2)c2cc1Oc1ccc(cc1)C[C@H]1c3cc(c(OC)cc3CCN1C)Oc1c(OC)c(OC)cc3c1[C@H](C2)N(C)CC3`, for which the results for the IC50 in test [1] and in test [2] were 7.68 µM and 6.45 µM, respectively.
With `COc1cc(NC(C)=O)c2cc1Oc1ccc(cc1)C[C@H]1c3cc(c(OC)cc3CCN1C)Oc1c(OC)c(OC)cc3c1[C@H](C2)N(C)CC3`, the half-maximal inhibitory concentration (IC50) in test [1] was 12.2 µM; in test [2], 12.3 µM.
As to `C=CC(=O)Nc1cc(OC)c2cc1C[C@H]1c3c(cc(OC)c(OC)c3Oc3cc4c(cc3OC)CCN(C)[C@H]4Cc3ccc(cc3)O2)CCN1C`, the results for the half-maximal inhibitory concentration (IC50) in test [1] and in test [2] were 10.4 µM and 10.7 µM, respectively.
Take `COc1ccc2cc1Oc1ccc(cc1)C[C@H]1c3cc(c(OC)cc3CCN1C)Oc1c(OC)c(OC)cc3c1[C@H](C2)N(C)CC3` [FANCHININ]: the results for the half-maximal inhibitory concentration (IC50) in test [1] and in test [2] were 15 µM and 18.5 µM, respectively.
Taken in the same sequence, the figures for `COc1cc(NC(=O)CCCl)c2cc1Oc1ccc(cc1)C[C@H]1c3cc(c(OC)cc3CCN1C)Oc1c(OC)c(OC)cc3c1[C@H](C2)N(C)CC3` were 9.21 µM and 6.28 µM.
For `COc1cc(NC(=O)c2ccc(Br)cc2)c2cc1Oc1ccc(cc1)C[C@H]1c3cc(c(OC)cc3CCN1C)Oc1c(OC)c(OC)cc3c1[C@H](C2)N(C)CC3`, in that order: 4.4 µM and 7.76 µM.
As for `COc1cc(NC(=O)c2cc[nH]n2)c2cc1Oc1ccc(cc1)C[C@H]1c3cc(c(OC)cc3CCN1C)Oc1c(OC)c(OC)cc3c1[C@H](C2)N(C)CC3`, the half-inhibitory concentration (IC50) came out at 4.17 µM in test [1] and 2.24 µM in test [2].
For `C=CCCCCCCCCC(=O)Nc1cc(OC)c2cc1C[C@H]1c3c(cc(OC)c(OC)c3Oc3cc4c(cc3OC)CCN(C)[C@H]4Cc3ccc(cc3)O2)CCN1C`, in that order: 10.8 µM and 11.3 µM.
With `COc1cc(NC(=O)CCBr)c2cc1Oc1ccc(cc1)C[C@H]1c3cc(c(OC)cc3CCN1C)Oc1c(OC)c(OC)cc3c1[C@H](C2)N(C)CC3`, the 50% inhibitory concentration (IC50) stood at 7.86 µM in test [1] and 6.34 µM in test [2].
For the compound `COc1cc(NC(=O)c2ccc(Cl)cc2Cl)c2cc1Oc1ccc(cc1)C[C@H]1c3cc(c(OC)cc3CCN1C)Oc1c(OC)c(OC)cc3c1[C@H](C2)N(C)CC3`, the IC50 in test [1] stood at 1.7 µM; in test [2], 8.24 µM.
For `COc1cc(NC(=O)c2ccccc2Cl)c2cc1Oc1ccc(cc1)C[C@H]1c3cc(c(OC)cc3CCN1C)Oc1c(OC)c(OC)cc3c1[C@H](C2)N(C)CC3`, in that order: 2.81 µM and 12.1 µM.
As for `COc1cc(NC(=O)C(Cl)(Cl)Cl)c2cc1Oc1ccc(cc1)C[C@H]1c3cc(c(OC)cc3CCN1C)Oc1c(OC)c(OC)cc3c1[C@H](C2)N(C)CC3`, the values for the 50% inhibitory concentration (IC50) in test [1] and in test [2] were 4.26 µM and 3.22 µM, respectively.
Take `COc1cc(NC(=O)c2ccoc2)c2cc1Oc1ccc(cc1)C[C@H]1c3cc(c(OC)cc3CCN1C)Oc1c(OC)c(OC)cc3c1[C@H](C2)N(C)CC3`: the half-maximal inhibitory concentration (IC50) is 3.22 µM in test [1] and 1.89 µM in test [2].
As to `COc1cc(NC(=O)c2cccc3ccccc23)c2cc1Oc1ccc(cc1)C[C@H]1c3cc(c(OC)cc3CCN1C)Oc1c(OC)c(OC)cc3c1[C@H](C2)N(C)CC3`, the IC50 came to 5.63 µM in test [1] and 5.56 µM in test [2].
Take `COc1cc(NC(=O)c2cccc(Cl)c2)c2cc1Oc1ccc(cc1)C[C@H]1c3cc(c(OC)cc3CCN1C)Oc1c(OC)c(OC)cc3c1[C@H](C2)N(C)CC3`: the IC50 in test [1] was determined as 3.67 µM; in test [2], 7.63 µM.
For `COc1cc(NC(=O)c2c(Cl)cc(Cl)cc2Cl)c2cc1Oc1ccc(cc1)C[C@H]1c3cc(c(OC)cc3CCN1C)Oc1c(OC)c(OC)cc3c1[C@H](C2)N(C)CC3`, the IC50 in test [1] was 4.12 µM; in test [2], 6.54 µM.
Regarding `COc1cc(NC(=O)c2cccs2)c2cc1Oc1ccc(cc1)C[C@H]1c3cc(c(OC)cc3CCN1C)Oc1c(OC)c(OC)cc3c1[C@H](C2)N(C)CC3`, the IC50 in test [1] came to 11.9 µM; in test [2] it was 9.01 µM.
Taken in the same sequence, the figures for `COc1cc(NC(=O)c2ccc(Cl)cc2)c2cc1Oc1ccc(cc1)C[C@H]1c3cc(c(OC)cc3CCN1C)Oc1c(OC)c(OC)cc3c1[C@H](C2)N(C)CC3` were 10.3 µM and 11.9 µM.
